Test results from US7422863B2, “Molting hormone receptor and method for screening ligand to the receptor” (Kumiai Chemical Industry Co., Ltd., priority 2003, dated 2008).
“Also recorded” adds a separate entry of the source.

Experiments:
Design in all cases: species or system Spodoptera litura
[1] = test system: EcR-DF/USP-AE complex; test: Screening system: inhibition of [3H]ponasterone A binding to the complex by test compounds; details: for activity of binding to the EcR-DF/USP-AE complex: endocrine disrupters and female hormone, FIG. 25; for inhibition of the binding of [3H]ponasterone A to the complex: concentration of test compound changed, FIG. 24; for activity of binding to the complex: test compound 10,000 times stronger than [3H]ponasterone A
Procedure: In Example 7, a screening system used for screening an insect inhibitor was constructed based on the results of Examples 1 to 6. As described in Examples 1 to 6, when binding analysis was carried out using ponasterone A as an ecdysone agonist, ponasterone A binding to a complex consisting of EcR-DF and USP-AE was observed. In order to confirm whether or not this system functions as a screening system, the binding of the complex to other ecdysone agonists should also be observed. Thus, using 20-hydroxyecdysone that is an ecdysone active in living insect bodies and tebufenozide (RH-5992) that is a synthetic ecdysone agonist, the binding experiment was carried out between the […] and each of the above compounds.
First, EcR-DF and USP-AE were mixed into a binding buffer, and [^3H]ponasterone A was then added thereto in the same manner as in Example 4. Also, the same experiment was carried out with the exception that 20-hydroxyecdysone or tebufenozide that was 10,000 times stronger than [^3H]ponasterone A was added thereto, so as to obtain nonspecific binding. […] Thus, the same experiment was carried out while the concentration of 20-hydroxyecdysone or tebufenozide was changed.
Subsequently, in the present example, using a screening system in which ability to bind to the EcR-DF/USP-AE complex is used as an index, 4 types of compounds were evaluated in terms of such binding ability. As compounds to be evaluated, 4-nonylphenol, stilbestrol, and diethyl phthalate (endocrine disrupters), and estradiol-17β (female hormone) were used.

[2] = test system: EcR-DF and USP-DE; test: [3H]ponasterone A binding experiment using COS-7 cell extracts
Procedure: (§1) Each expression plasmid DNA was independently introduced into COS-7 cells. 48 hours later, each extract was prepared from the cells. In addition, plasmid DNA into which EcR-AF had been inserted and plasmid DNA into which USP-AE had been inserted were co-introduced into COS-7 cells, and an extract was then prepared in the same manner. Moreover, plasmid DNA into which, EcR-DF had been inserted and plasmid DNA into which USP-AE had been inserted were co-introduced into COS-7 cells, and an extract was then prepared in the same manner. Furthermore, plasmid DNA into which EcR-AF had been inserted and plasmid DNA into which USP-DE had been inserted were co-introduced into COS-7 cells, and an extract was then prepared in the same manner. Further, plasmid DNA into which EcR-DF had been inserted and plasmid DNA into which USP-DE had been inserted were co-introduced into COS-7 cells, and an extract was then prepared in the same manner. The expression of a product of interest in the COS-7 cells was confirmed by Western blotting using an anti-FLAG antibody.
(§2) By the aforementioned operations, 4 types of extracts containing each of EcR-AF, EcR-DF, USP-AE, and USP-DE, an extract containing the coexpressed EcR-AF and USP-AE, an extract containing the coexpressed EcR-DF and USP-AE, an extract containing the coexpressed EcR-AF and USP-DE, and an extract containing the coexpressed EcR-DF and USP-DE, were prepared.
(§3) In order to prevent the non-specific binding of ponasterone A to a receptor (a complex consisting of an EcR recombinant and a USP recombinant), 1% BSA was first added to a binding buffer (20 mM HEPES (pH7.4)/5 mM DTT/1 nM PMSF). Thereafter, USP-AE or USP-DE was mixed with the EcR-AF, EcR-DF, EcR-DE, EcR-EF, or EcR-E, purified in Example 2. Thereafter, [^3H]ponasterone A ([24, 25, 26, 27-3H] Ponasterone A (American Radiolabeled Chemicals Inc.)) with a final concentration of 1.37 nM was further added thereto. The obtained mixture was reacted at 25° C. 40 minutes later, the reaction was terminated by addition of 200 μl of an activated carbon solution (0.5% Charcoal, dextran coated (SIGMA)/20 mm HEPES/50 mM NaCl). A supernatant fraction obtained after centrifugation was mixed with a liquid scintillator, and the radioactivity (DPM) of the obtained mixture was measured using a liquid scintillation counter (ALOKA LSC-5100). The obtained measurement value was defined as the total binding amount. Moreover, the same experiment was carried out with the exception that nonradioactive ponasterone A that was 10,000 times stronger than [^3H]ponasterone A was added. Then, the amount of a ligand non-specifically binding to a receptor was obtained. […]

[3] = test system: EcR-DF and USP-AE; test: as above
Procedure: as §1, §2, §3

[4] = test system: EcR-AF combined with USP-AE or USP-DE; test: [3H]ponasterone A binding experiment with full-length EcR recombinant
Procedure: as §1, with “The expression of a product of interest in the COS-7 cells was confirmed by Western blotting using an anti-FLAG antibody.” left out
In order to prevent the non-specific binding of ponasterone A to a receptor (a complex consisting of an EcR recombinant and a USP recombinant), 1% BSA was first added to a binding buffer (20 mM HEPES (pH7.4)/5 mM DTT/1 nM PMSF). […] A supernatant fraction obtained after centrifugation was mixed with a liquid scintillator, and the radioactivity (DPM) of the obtained mixture was measured using a liquid scintillation counter (ALOKA LSC-5100). […]

[5] = test system: complex consisting of EcR-DF and USP-DE; test: [3H]ponasterone A binding experiment, charcoal dextran method, recombinants expressed in Escherichia coli; details: E. coli-expressed recombinants; 1.37 nM [3H]ponasterone A, 25° C., 40 minutes; FIG. 16
From the text: (§4) In Example 4, in order to separate a binding form from a free form, the charcoal dextran method was applied. This is a common method applied when a steroid hormone is used as a ligand. By adding an activated carbon solution coated with dextran to a reaction solution when the reaction is terminated, a ligand that has not bound to a receptor is adsorbed on the activated carbon. Thereafter, the reaction solution is centrifuged, thereby separating an activated carbon fraction (precipitate fraction) from a supernatant fraction in which a receptor/ligand complex exists.
In order to prevent the non-specific binding of ponasterone A to a receptor (a complex consisting of an EcR recombinant and a USP recombinant), 1% BSA was first added to a binding buffer (20 mM HEPES (pH7.4)/5 mM DTT/1 nM PMSF). Thereafter, USP-AE or USP-DE was mixed with the EcR-AF, EcR-DF, EcR-DE, EcR-EF, or EcR-E, purified in Example 2. Thereafter, [^3H]ponasterone A ([24, 25, 26, 27-3H] Ponasterone A (American Radiolabeled Chemicals Inc.)) with a final concentration of 1.37 nM was further added thereto. The obtained mixture was reacted at 25° C. […] A supernatant fraction obtained after centrifugation was mixed with a liquid scintillator, and the radioactivity (DPM) of the obtained mixture was measured using a liquid scintillation counter (ALOKA LSC-5100). […]

[6] = biological target: EcR-DF/USP-AE complex; test: Scatchard analysis of binding of complex to [3H]ponasterone A; details: EcR-DF:USP-AE 1:1, FIG. 23, read-out: dissociation constant (Kd)
Procedure: In Example 6, using EcR-DF and USP-AE, the dissociation constant (Kd) of the complex to ponasterone A was obtained as follows. First, EcR-DF was mixed with USP-AE at a molar ratio of 1:1, and [^3H]ponasterone A with various concentrations was then added to the mixture. An activated carbon solution was added to the reaction solution to eliminate free ligands. The amount of the EcR-DF/USP-AE complex binding to [^3H]ponasterone A (total binding amount) was obtained by measuring the radioactivity of a supernatant fraction obtained after centrifugation. Moreover, the same experiment was carried out with the exception that nonradioactive ponasterone A that was 10,000 times stronger than [^3H]ponasterone A was added, so as to obtained non-specific binding. In FIG. 23, the horizontal axis indicates the specific bound amount of [^3H]ponasterone A (nM), the vertical axis indicates specific binding amount (bound)/total binding amount-specific binding amount (free).

[7] = test system: EcR or USP (single use); test: [3H]ponasterone A binding experiment, charcoal dextran method, single use of EcR or USP recombinant; details: regardless of length, FIG. 16
From the text: as §4
as §3, with “Thereafter, USP-AE or USP-DE was mixed with the EcR-AF, EcR-DF, EcR-DE, EcR-EF, or EcR-E, purified in Example 2.” left out, “LSC-5100).” for “LSC-5100). The obtained measurement value was defined as the total binding amount. Moreover, the same experiment was carried out with the exception that nonradioactive ponasterone A that was 10,000 times stronger than [^3H]ponasterone A was added. Then, the amount of a ligand non-specifically binding to a receptor was obtained.”

[8] = test system: complex consisting of EcR-DF and USP-AE; test: [3H]ponasterone A binding experiment, charcoal dextran method, recombinants expressed in Escherichia coli
From the text: as §4
In order to prevent the non-specific binding of ponasterone A to a receptor (a complex consisting of an EcR recombinant and a USP recombinant), 1% BSA was first added to a binding buffer (20 mM HEPES (pH7.4)/5 mM DTT/1 nM PMSF). Thereafter, USP-AE or USP-DE was mixed with the EcR-AF, EcR-DF, EcR-DE, EcR-EF, or EcR-E, purified in Example 2. Thereafter, [^3H]ponasterone A ([24, 25, 26, 27-3H] Ponasterone A (American Radiolabeled Chemicals Inc.)) with a final concentration of 1.37 nM was further added thereto. The obtained mixture was reacted at 25° C. 40 minutes later, the reaction was terminated by addition of 200 μl of an activated carbon solution (0.5% Charcoal, dextran coated (SIGMA)/20 mm HEPES/50 mM NaCl). A supernatant fraction obtained after centrifugation was mixed with a liquid scintillator, and the radioactivity (DPM) of the obtained mixture was measured using a liquid scintillation counter (ALOKA LSC-5100). The obtained measurement value was defined as the total binding amount. Moreover, the same experiment was carried out with the exception that nonradioactive ponasterone A that was 10,000 times stronger than [^3H]ponasterone A was added. Then, the amount of a ligand non-specifically binding to a receptor was obtained. The amount of a ligand specifically binding to a receptor was defined as a value obtained by subtracting the non-specific binding amount from the total binding amount.
The optimal reaction time for a binding reaction between a complex consisting of EcR-DF and USP-AE and a ligand was analyzed as follows. First, USP-AE with various types of concentrations was added to a certain amount of EcR-DF, and the obtained mixture was then reacted at 25° C. for 40 minutes in a water bath. The concentration of ponasterone A in the reaction solution was set at 1.34 nM. […]
The optimal reaction time for a binding reaction between a complex consisting of EcR-DF and USP-AE and a ligand was analyzed as follows. […]
The optimal reaction temperature for a binding reaction between a complex consisting of EcR-DF and USP-AE and a ligand was analyzed as follows. […]

[9] = coexpressed in COS-7 cells, FIG. 17 lanes 7 and 8
[10] = singly expressed in COS-7 cells, then mixed, FIG. 17 lanes 3 and 4

**Q.** With CCCCCCCCCc1ccc(O)cc1 [4-nonylphenol] as the molecule, how does the “activity of binding to the EcR-DF/USP-AE complex” value [1] read?
**A.** exhibited activity of binding; also recorded: exhibited strong binding activity

**Q.** With CC(C)(O)CC[C@@H](O)[C@](C)(O)[C@H]1CC[C@@]2(O)C3=CC(=O)[C@@H]4C[C@@H](O)[C@@H](O)C[C@]4(C)[C@H]3CC[C@]12C [20-hydroxyecdysone] as the molecule, how does the “inhibition of the binding of [3H]ponasterone A to the complex” value [1] read?
**A.** concentration-dependently inhibit

**Q.** What about the “activity of binding to the complex” value [1] of the same molecule?
**A.** exhibited activity of binding

**Q.** C[C@]12CC[C@@H]3c4ccc(O)cc4CC[C@H]3[C@@H]1CC[C@@H]2O [estradiol-17β] was tested. Which “activity of binding to the EcR-DF/USP-AE complex” value [1] did it give?
**A.** exhibited activity of binding

**Q.** Which results are given for CC(C)CC[C@@H](O)[C@](C)(O)[C@H]1CC[C@@]2(O)C3=CC(=O)[C@@H]4C[C@@H](O)[C@@H](O)C[C@]4(C)[C@H]3CC[C@]12C [ponasterone A]?
**A.** binding to a ligand (ponasterone A) [2, 9]: a strong binding to a ligand was observed; binding to a ligand (ponasterone A) [2, 10]: no such bindings were observed; binding to a ligand (ponasterone A) [3, 9]: a strong binding to a ligand was observed; binding to a ligand (ponasterone A) [3, 10]: no such bindings were observed; binding to a ligand (ponasterone A) ([4]; COS-7 extracts, coexpression and mixing after single expression, FIG. 17): no bindings to a ligand were observed; binding of the full-length EcR recombinant (EcR-AF) to ponasterone A ([4]; both Escherichia coli and mammalian cell expression systems): extremely weak; ability to bind to a ligand (specific binding of [3H]ponasterone A) [5]: had ability to bind; Kd [6]: 2.79 nM; specific binding of [3H]ponasterone A [7]: no specific bindings were observed; time necessary for saturation of the binding ([8]; 25° C., 1.34 nM ponasterone A, EcR-DF:USP-AE 1:1): 60 min; ability to bind to a ligand (specific binding of [3H]ponasterone A) ([8]; E. coli-expressed recombinants, 1.37 nM [3H]ponasterone A, 25° C., 40 minutes, FIG. 16): had ability to bind; effect of salt (NaCl) concentration on specific binding of ligand to the complex ([8]; NaCl 0, 50, 100, 300, 500 mM, 25° C., FIG. 21): as the salt concentration increased, the specific binding of a ligand to the above complex decreased; time necessary for saturation of the binding ([8]; low-temperature chamber at 4° C.): 480 min

**Q.** CC/C(=C(/CC)c1ccc(O)cc1)c1ccc(O)cc1 [stilbestrol] was tested. Which “activity of binding to the EcR-DF/USP-AE complex” value [1] did it give?
**A.** exhibited activity of binding; also recorded: exhibited strong binding activity

**Q.** How did the “inhibition of the binding of [3H]ponasterone A to the complex” value [1] turn out when CCc1ccc(C(=O)NN(C(=O)c2cc(C)cc(C)c2)C(C)(C)C)cc1 [tebufenozide] was run?
**A.** concentration-dependently inhibit

**Q.** And the “activity of binding to the complex” value [1]?
**A.** exhibited activity of binding
